This note sets out measurements from ChEMBL document CHEMBL4414617, “Identification of 2-Imidazopyridine and 2-Aminopyridone Purinones as Potent Pan-Janus Kinase (JAK) Inhibitors for the Inhaled Treatment of Respiratory Diseases” (J Med Chem, 2019).

Molecules are shown by their SMILES.

Data set [1] has as its target Tyrosine-protein kinase JAK1 (Homo sapiens, UniProt P23458).
Description: Inhibition of recombinant human GST-tagged JAK1 (866 to 1154 residues) expressed in baculovirus expression system using PolyGT-Biotin as substrate measured after 3 to 20 hrs by HTRF assay
The test system of another data set is CHO-K1. The data set can be described thus: cells. The following applies: Cricetulus griseus, CHO-K1, 24 h. It counts as ADME, cell-based.
Data set [2] in a line: in vitro. Conditions: human, plasma.
Description: Protein binding in human plasma by LC-MS/MS-based equilibrium dialysis method
For another data set, the target named is hERG (KCNH2) (Homo sapiens, UniProt Q12809). The data set can be described thus: in vitro.
The target in the next data set is NaV1.5 (Homo sapiens, UniProt Q14524). Briefly: in vitro.
Data set [3] in a line: in vitro. The following applies: PAMPA. (In general: PAMPA measures passive passage across an artificial lipid membrane.)
Description: Apparent permeability of compound at 20 uM measured after 5 hrs by PAMPA
For data set [4] the following is noted: buffer.
Description: Solubility of the compound in PBS with 0.2% Tween80 using nanosuspension formulation
Data set [5] can be described thus: in vivo. The following applies: Wistar, rat, inhaled or intranasal.
Description: Half life in Wistar rat at 0.41 mg/kg administered intratracheally as nanosuspension measured up to 24 hrs by LC-MS/MS analysis
Data set [6] can be described thus: in vitro. The following applies: rat, microsomes.
Description: Drug metabolism in rat liver microsomes at 5 uM incubated for 30 mins by UPLC-MS/MS analysis
The target of another data set is Cav1.2 (Homo sapiens, UniProt Q13936). Briefly: in vitro.
The nature of data set [7]: in vivo. Conditions: Wistar, rat, inhaled or intranasal. The source holds these as a separate data set.
The nature of data set [8]: in vitro. The following applies: human, microsomes.
Description: Drug metabolism in human liver microsomes at 5 uM incubated for 30 mins by UPLC-MS/MS analysis
The conditions of data set [9]: buffer, pH 1.2.
Description: Chemical stability of compound at pH 1.2 to 9
Data set [10] in a line: in vivo. The following applies: Sprague-Dawley, rat, inhaled or intranasal, 3 mg/kg.
The nature of data set [11]: in vitro. The following applies: rat, plasma.
Description: Protein binding in rat plasma by LC-MS/MS-based equilibrium dialysis method
The conditions of data set [12]: buffer. This is another data set of the same source.
Description: Solubility of the compound in sterile water with 0.2% Tween80 using nanosuspension formulation
The conditions of data set [13]: rat, in vivo, inhaled or intranasal, 3 mg/kg, 24 h.
Description: Free maximum concentration of drug in Sprague-Dawley rat at 3 mg/kg administered intratracheally as nanosuspension measured up to 24 hrs by LC-MS/MS analysis
Data set [14] can be described thus: in vivo. The following applies: Wistar, rat, po, 30 mg/kg.
The nature of the next data set: physchem. The following applies: octanol/water.
Data set [15] in a line: in vivo. The following applies: Wistar, rat, po, 30 mg/kg. The source holds these as a separate data set.

Sequence of Tyrosine-protein kinase JAK1 (P23458 whole entry): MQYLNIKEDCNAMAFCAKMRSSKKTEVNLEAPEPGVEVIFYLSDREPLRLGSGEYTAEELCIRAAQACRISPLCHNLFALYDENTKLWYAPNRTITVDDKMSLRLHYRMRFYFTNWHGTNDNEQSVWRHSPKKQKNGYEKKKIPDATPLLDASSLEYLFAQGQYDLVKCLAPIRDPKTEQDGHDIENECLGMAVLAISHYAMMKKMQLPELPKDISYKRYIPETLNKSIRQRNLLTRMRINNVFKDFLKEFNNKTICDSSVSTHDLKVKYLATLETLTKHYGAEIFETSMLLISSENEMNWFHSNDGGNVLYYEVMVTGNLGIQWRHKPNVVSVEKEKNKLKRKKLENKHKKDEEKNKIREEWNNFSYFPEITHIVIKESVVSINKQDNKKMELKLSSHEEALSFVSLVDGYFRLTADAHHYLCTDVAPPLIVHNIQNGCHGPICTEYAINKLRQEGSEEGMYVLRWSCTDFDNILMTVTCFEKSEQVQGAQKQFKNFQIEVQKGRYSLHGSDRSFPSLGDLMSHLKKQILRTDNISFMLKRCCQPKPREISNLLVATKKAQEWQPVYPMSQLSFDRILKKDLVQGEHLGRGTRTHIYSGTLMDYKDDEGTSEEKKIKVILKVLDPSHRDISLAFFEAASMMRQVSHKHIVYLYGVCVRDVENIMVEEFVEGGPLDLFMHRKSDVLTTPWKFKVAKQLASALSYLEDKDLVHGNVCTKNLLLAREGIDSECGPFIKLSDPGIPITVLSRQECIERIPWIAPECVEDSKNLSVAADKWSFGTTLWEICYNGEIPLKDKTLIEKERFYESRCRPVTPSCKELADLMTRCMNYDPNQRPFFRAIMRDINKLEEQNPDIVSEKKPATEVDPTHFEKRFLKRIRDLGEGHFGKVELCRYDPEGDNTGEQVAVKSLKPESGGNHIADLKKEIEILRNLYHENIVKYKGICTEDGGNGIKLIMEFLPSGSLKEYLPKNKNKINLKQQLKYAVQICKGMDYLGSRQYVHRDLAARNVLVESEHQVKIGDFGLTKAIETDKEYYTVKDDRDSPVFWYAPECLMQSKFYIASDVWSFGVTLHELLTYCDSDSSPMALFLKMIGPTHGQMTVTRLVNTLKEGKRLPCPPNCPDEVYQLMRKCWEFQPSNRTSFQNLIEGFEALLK
Sequence of hERG (KCNH2) (Q12809 whole entry): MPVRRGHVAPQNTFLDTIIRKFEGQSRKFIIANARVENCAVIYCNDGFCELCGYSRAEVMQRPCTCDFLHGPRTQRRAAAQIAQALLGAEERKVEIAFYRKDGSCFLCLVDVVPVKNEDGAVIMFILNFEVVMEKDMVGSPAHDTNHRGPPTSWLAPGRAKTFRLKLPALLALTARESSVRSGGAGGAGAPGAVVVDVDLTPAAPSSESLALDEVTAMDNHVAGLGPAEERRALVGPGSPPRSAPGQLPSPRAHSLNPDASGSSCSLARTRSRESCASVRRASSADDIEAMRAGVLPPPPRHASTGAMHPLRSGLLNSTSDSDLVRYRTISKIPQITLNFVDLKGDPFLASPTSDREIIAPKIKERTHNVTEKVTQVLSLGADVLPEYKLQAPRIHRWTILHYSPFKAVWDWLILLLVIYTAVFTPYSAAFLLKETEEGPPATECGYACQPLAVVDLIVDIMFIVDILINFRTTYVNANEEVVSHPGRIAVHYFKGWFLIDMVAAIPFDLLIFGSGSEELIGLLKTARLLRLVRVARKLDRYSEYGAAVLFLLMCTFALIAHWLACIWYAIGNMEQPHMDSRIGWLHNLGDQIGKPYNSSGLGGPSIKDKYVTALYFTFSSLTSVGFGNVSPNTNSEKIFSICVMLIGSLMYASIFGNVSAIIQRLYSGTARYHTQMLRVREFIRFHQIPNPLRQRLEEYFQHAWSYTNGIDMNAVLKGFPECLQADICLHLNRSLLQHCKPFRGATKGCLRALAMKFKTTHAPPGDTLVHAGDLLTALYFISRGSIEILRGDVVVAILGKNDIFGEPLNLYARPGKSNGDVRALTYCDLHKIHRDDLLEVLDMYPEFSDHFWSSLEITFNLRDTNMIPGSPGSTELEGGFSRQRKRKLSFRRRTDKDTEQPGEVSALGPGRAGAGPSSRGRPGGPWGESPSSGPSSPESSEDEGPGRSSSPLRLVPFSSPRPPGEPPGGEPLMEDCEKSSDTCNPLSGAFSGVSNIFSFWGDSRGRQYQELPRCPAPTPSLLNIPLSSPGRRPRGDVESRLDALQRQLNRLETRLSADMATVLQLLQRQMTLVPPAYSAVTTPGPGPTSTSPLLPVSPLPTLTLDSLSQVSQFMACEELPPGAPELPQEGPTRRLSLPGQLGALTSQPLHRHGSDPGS
Sequence of NaV1.5 (Q14524 whole entry): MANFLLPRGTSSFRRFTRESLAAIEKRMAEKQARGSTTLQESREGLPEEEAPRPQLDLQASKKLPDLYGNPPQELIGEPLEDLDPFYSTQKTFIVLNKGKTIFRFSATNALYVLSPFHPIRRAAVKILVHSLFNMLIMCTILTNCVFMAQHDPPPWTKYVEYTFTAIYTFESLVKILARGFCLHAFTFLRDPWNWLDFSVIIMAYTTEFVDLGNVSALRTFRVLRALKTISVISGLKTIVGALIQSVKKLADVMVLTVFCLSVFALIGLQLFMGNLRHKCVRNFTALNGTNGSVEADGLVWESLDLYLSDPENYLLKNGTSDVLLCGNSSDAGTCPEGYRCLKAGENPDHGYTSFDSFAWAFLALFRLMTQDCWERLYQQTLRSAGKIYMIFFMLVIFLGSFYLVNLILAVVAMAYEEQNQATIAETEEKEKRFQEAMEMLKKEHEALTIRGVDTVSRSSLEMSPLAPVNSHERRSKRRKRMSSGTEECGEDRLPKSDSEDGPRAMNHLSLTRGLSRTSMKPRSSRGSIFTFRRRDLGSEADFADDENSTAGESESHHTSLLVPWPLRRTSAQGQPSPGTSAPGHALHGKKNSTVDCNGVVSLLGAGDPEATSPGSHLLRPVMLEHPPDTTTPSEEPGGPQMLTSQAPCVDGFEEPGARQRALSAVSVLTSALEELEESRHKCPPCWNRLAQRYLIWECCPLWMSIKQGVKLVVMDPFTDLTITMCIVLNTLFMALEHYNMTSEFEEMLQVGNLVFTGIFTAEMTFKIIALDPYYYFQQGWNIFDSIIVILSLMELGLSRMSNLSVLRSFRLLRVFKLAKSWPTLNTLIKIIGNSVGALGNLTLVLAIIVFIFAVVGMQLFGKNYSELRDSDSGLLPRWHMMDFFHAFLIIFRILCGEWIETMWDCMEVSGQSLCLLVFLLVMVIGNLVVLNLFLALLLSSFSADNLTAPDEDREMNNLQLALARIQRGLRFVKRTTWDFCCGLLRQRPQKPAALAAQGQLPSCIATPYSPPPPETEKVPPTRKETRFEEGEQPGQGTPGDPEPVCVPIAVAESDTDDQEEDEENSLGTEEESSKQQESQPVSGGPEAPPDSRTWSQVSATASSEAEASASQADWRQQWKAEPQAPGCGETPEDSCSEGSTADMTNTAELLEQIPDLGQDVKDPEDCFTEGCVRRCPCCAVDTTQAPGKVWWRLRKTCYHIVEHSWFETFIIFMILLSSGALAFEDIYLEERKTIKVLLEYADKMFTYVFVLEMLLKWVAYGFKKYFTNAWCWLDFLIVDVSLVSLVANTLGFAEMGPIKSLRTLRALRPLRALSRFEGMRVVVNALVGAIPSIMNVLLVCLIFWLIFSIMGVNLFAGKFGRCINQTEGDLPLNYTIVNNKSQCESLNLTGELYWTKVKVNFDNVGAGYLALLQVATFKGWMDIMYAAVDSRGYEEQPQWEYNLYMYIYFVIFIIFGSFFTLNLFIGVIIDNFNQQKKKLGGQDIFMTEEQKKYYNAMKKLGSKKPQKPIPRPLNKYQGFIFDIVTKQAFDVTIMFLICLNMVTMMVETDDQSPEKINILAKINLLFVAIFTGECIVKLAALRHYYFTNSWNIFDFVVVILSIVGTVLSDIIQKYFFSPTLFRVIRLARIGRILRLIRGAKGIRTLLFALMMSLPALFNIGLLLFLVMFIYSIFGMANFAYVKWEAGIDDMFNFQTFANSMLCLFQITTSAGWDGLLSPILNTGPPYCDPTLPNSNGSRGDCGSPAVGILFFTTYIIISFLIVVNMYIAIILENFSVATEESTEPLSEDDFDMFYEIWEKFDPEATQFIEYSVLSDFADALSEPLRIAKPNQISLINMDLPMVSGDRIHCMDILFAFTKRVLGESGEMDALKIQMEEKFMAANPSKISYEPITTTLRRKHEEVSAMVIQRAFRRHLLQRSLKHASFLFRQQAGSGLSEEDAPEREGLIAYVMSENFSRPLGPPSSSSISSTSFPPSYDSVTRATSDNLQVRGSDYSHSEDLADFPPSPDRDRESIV
Description for CHO-K1: Cytotoxicity against CHOK1 cells assessed as reduction in ATP levels incubated for 24 hrs by ATPlite luminescence assay
Description for Cav1.2: Inhibition of Cav1.2 (unknown origin) at 10 uM relative to control
Description for NaV1.5: Inhibition of NaV1.5 (unknown origin) at 10 uM relative to control
Description for hERG (KCNH2): Inhibition of human ERG at 10 uM relative to control
Description for physchem: Lipophilicity, log D of compound

Take `O=c1[nH]c2cnc(-c3cnc4ccc(F)cn34)nc2n1[C@@H]1CCOc2c(F)cccc21`: the IC50 – broadly, the midpoint of a concentration-inhibition curve – in data set [1] is 0.024 µM; in the data set on CHO-K1, 4 µM.

The molecule `C[C@H](c1ccc(F)cn1)n1c(=O)[nH]c2cnc(Nc3ccc[nH]c3=O)nc21` had a concentration for half-maximal inhibition (IC50) in the data set with CHO-K1 greater than 100 µM.

`N#CC[C@H]1CC[C@H](n2c(=O)[nH]c3cnc(Nc4ccc[nH]c4=O)nc32)CC1`: the free fraction (fraction unbound) (commonly free concentration divided by total concentration) in the data set “in vitro [2]” is 0.17; in “in vitro [11]”, 0.21. Further, the inhibition at 10 µM at hERG (KCNH2), at NaV1.5 and on Cav1.2 was less than 15% throughout. The Papp (commonly the rate of passage across a membrane or cell layer, normalised by area and donor concentration) at 5 h, 20 µM in “in vitro [3]” is 0.61 ×10⁻⁶ cm/s. Also, the solubility entry in data set [4] and in [12] was “Soluble” each time. Moreover, the half-life (in general, how long it takes for the measured level to halve) at 24 h in “in vivo [5]” is 16.3 h. Also, the metabolised at 0.5 h, 5 µM in “in vitro [6]” was 17%; in “in vitro [8]”, 21%. Besides, the AUC (commonly concentration integrated over time) at 24 h was 118 ng·h/mL in “in vivo [7]” and 406 ng·h/mL in the data set “in vivo [10]”. For the same molecule, in the data set with CHO-K1, the IC50 was greater than 100 µM. Also, the Stability entry in [9] was “Stable”. In data set [13], this molecule displayed a fCmax of 57 ng/mL. Also, in the data set “in vivo [14]”, the maximum concentration (Cmax) (usually the highest concentration seen after dosing) at 24 h was determined as 7 ng/mL. In addition, the pH-dependent lipophilicity (logD) (in general, the decadic logarithm of the distribution of all forms, ionised or not, between an organic phase and buffer at a given pH) in “physchem” was 2.1. The AUC(0-inf) (usually total exposure, with the tail of the curve extrapolated) at 24 h in “in vivo [15]” is 32 ng·h/mL.

With `O=c1[nH]c2cnc(-c3cnc4ccc(F)cn34)nc2n1[C@H]1CC[C@H](O)CC1`, 100 µM corresponded to half-maximal inhibition in the data set on CHO-K1 (IC50).

Consider `C[C@H](c1ncc(F)cn1)n1c(=O)[nH]c2cnc(-c3cnc4ccc(F)cn34)nc21`, for which the results for the IC50 (in data set [1]; with CHO-K1) were 0.0035 µM and 4.3 µM, respectively.

Molecule `O=c1[nH]cc(Cl)cc1Nc1ncc2[nH]c(=O)n([C@@H]3CCOc4c(F)cccc43)c2n1` yielded an IC50 with CHO-K1 of 36 µM.

In the data set with CHO-K1, `C[C@H](c1ccc(F)cn1)n1c(=O)[nH]c2cnc(Nc3cc(F)c[nH]c3=O)nc21` returned an IC50 greater than 100 µM.

In the data set with CHO-K1, `O=c1[nH]cc(F)cc1Nc1ncc2[nH]c(=O)n([C@@H]3CCOc4c(F)cccc43)c2n1` returned an IC50 greater than 100 µM.

As to `Cc1c[nH]c(=O)c(Nc2ncc3[nH]c(=O)n([C@@H]4CCOc5c(F)cccc54)c3n2)c1`, the IC50 with CHO-K1 is 51 µM.

Regarding `C[C@]1(O)CC[C@H](n2c(=O)[nH]c3cnc(-c4cnc5ccc(F)cn45)nc32)CC1`, the IC50 amounted to 0.079 µM in data set [1] and 16 µM in the data set on CHO-K1.
